Laboratory results as given in patent US8911953B2, “TDF-related compounds and analogs thereof, analogs and bioactive fragments” (Thrasos Innovation, Inc., priority 2005, dated 2014).
Positions of bridges follow the written chain, without caps; N, C: chain ends. No end group written: not given here.

Tested on: vascular endothelial cells
Assay: Smad 1, 5 phosphorylation in vascular endothelial cells (Western blot)
Assay type: cell-based
Conditions: added to vascular endothelial cells in culture
Description: (§1) Phosphorylation and nuclear translocation of Smads occurs following the activation of Type I and Type II receptors and subsequent signal transduction to intracellular Smad targets. Phosphorylation and nuclear translocation of R-Smad in HK-2, vascular endothelial, human prostate or other cells by TDFRP compounds is assayed by immuno-fluorescent microscopy methods, using anti-phospho Smad 1/5 antibodies according to the procedure of H Aoki, M Fujii, T Imamura, K Yagi, K Takehara, M Kato and K Miyazono. J. of Cell Sci. 114, 1483-1489, 2001) and by Western blot analysis (FIGS. 2, 3, 18, 2X).
The detection of Smad phosphorylation by Western analysis, for example in LNCaP (prostate cancer cells) or EC (vascular endothelial cells) in culture medium can be examined after exposure to varying concentrations of TDFRP or control compounds. BMP-7 serves as a positive control. Cells are lysed in RIPA lysis buffer (50 mM Tris-HCl at pH 8.0, 150 mM NaCl, 1% NP-40, 0.5% sodium deoxycholate, 0.1% SDS) containing 1 mM PMSF, 1 mM sodium orthovanadate, and 10 ug/mL proteinase inhibitor cocktail. Lysates are incubated on ice for 15 minutes, centrifuged, and transferred supernatant to a clean tube. 50 to 100 ug is used for analysis by SDS-PAGE. Resolved proteins are electro transferred onto PVDF membrane. The blot is blocked by incubating in 3% non-fat dry milk prepared in PBS at room temperature for 1 hour with constant slow agitation. The blot is incubated with 1-2 ug/mL of primary antibody (rabbit anti-phospho-Smad 1) prepared in PBS-milk, overnight with agitation at 4 degree C., washed twice with PBS, and incubated with secondary antibody (anti rabbit HRP conjugated IgG, 1:3000 dilution) at room temperature for 2 hours with agitation. After washing in PBS-0.05% Tween 20 for 5 minutes and rinsing, Smad phosphorylation is detected via an HRP reaction according to manufacturer's instructions (FIGS. 2, 3, 18, 2X).
as §1, with “HK-2” for “HK-2, vascular endothelial, human prostate or other”, “analysis in various cell types” for “analysis”, “27).” for “2X).”
For detection of Smad phosphorylation by Western analysis, LNCaP (prostate cancer cells) or EC (vascular endothelial cells) in culture medium are exposed to varying concentrations of TDFRP or control compounds. BMP-7 served as a positive control. Cells are lysed in RIPA lysis buffer (50 mM Tris-HCl at pH 8.0, 150 mM NaCl, 1% NP-40, 0.5% sodium deoxycholate, 0.1% SDS) containing 1 mM PMSF, 1 mM sodium orthovanadate, and 10 ug/mL proteinase inhibitor cocktail. Lysates are incubated on ice for 15 minutes, centrifuged, and transferred supernatant to a clean tube. 50 to 100 ug is used for analysis by
SDS-PAGE. Resolved proteins are electro transferred onto PVDF membrane. The blot is blocked by incubating in 3% non-fat dry milk prepared in PBS at room temperature for 1 hour with constant slow agitation. The blot is incubated with 1-2 ug/mL of primary antibody (rabbit anti-phospho-Smad 1) prepared in PBS-milk, overnight with agitation at 4 degree C., washed twice with PBS, and incubated with secondary antibody (anti rabbit HRP conjugated IgG, 1:3000 dilution) at room temperature for 2 hours with agitation. After washing in PBS-0.05% Tween 20 for 5 minutes and rinsing, Smad phosphorylation is detected via an HRP reaction according to manufacturer's instructions (FIGS. 3, 27).

## CYFDDSSNVLCKKYRS (disulfide 1-11 (inferred); not fully specified) [SEQ ID NO:45]
  phosphorylation and activation of intracellular Smad 1, 5: phosphorylation and activation of intracellular Smad 1, 5
